Experimental data taken from paper PMC4537286, “Permeation of Therapeutic Drugs in Different Formulations across the Airway Epithelium In Vitro” (PLoS ONE, 2015).
Structures can show the parent of a compound that is named as a salt. Where two headings read alike, the source gives them in different places.

What was measured:
[1] = Transport studies across Calu-3 monolayers, compounds applied in solution (SLE, ALE), Papp; conditions: human; for Papp at 120 min, 10 μg/ml: pH 7.4, Papp values for fluorescein, n = 12
Calu-3 cells [2] = experiment: as above
[3] = Size of particles delivered by DP-4 Dry Powder Insufflator, bright-field microscopy; assay type: physicochemical; conditions: roughly spherical particles
Experimental: Particles that were delivered by the DP-4 Dry Powder Insufflator were analyzed by bright-field microscopy. […] Sizes were measured using Cell^D Imaging software (Olympus).

Calu-3 cells [4] = experiment: Transport of aerosolized compounds across Calu-3 monolayers (AID_M MicroSprayer, AID_D DP-4 insufflator); conditions: for Dye transport relative to SLE: application with DP-4 Dry Powder Insufflator (AID_D); for Dye transport relative to SLE incubation: application with MicroSprayer IA-1C Aerosolizer (AID_M)
Experimental: (§1) 0.5 x 10^6 Calu-3 cells (passage 32–38) were seeded per membrane and different exposure systems were used (Fig A in S1 File). To discriminate between the different exposures, the following terminology is used. Cultures with cells supplied with medium only from the basolateral side are termed air-liquid interface culture. In submersed liquid exposure (SLE) cells are cultured in submersion and exposed with compound dissolved in buffer. In the air liquid exposure (ALE) cells are cultured at an air-liquid interface and the compound dissolved in buffer is applied to the cells. For air-liquid interface deposition (AID) cells are cultured at an air-liquid interface and exposed to the compound applied as liquid aerosols by MicroSprayer IA-1C Aerosolizer (AID_M) or as powder aerosols by DP-4 Dry Powder Insufflator (AID_D). For comparison of the different exposure systems Calu-3 cells cultured for 11 days on 3 μm 12-well insert (Greiner Bio-One) were used.
(§2) For SLE and ALE exposures the apical compartment was filled with 500 μL and the basolateral compartment with 1500 μL. […] For AID studies the basal compartment was filled with 700 μl, and 200 μl of drug dissolved in Krebs-Ringer buffer were sprayed on each Transwell insert using the MicroSprayer IA-1C Aerosolizer (AID_M exposure). […] 100 μl samples from the basolateral compartment were taken at 0–30–60–90–120 min and replaced with pre-warmed Krebs-Ringer buffer. […] At the end of the SLE and ALE studies the content of the basolateral compartment and 10 μl of the apical compartment were collected. […] The total volume of this solution was determined and this value minus the added 100 μl used for calculations of drug concentrations. The entire content of the basolateral compartment and 10 μl of the apical compartment were collected.
(§3) The MicroSprayer IA-1C Aerosolizer (PennCentury Inc., Wyndmoor, PA) was used to mimic nebulization of the compounds. The device consists of a thin, flexible, stainless steel tube measuring 0.64 mm in diameter and 50.8 cm in length attached to the light, hand-operated, high-pressure syringe FMJ-250. A unique patented atomizer at the very tip of the tube generates the aerosol with a mass median diameter of 16–22 μm (http://www.penncentury.com/products/IA_1C.php). The device was fixed at a distance of 11 cm between tip of the MicroSprayer and the rim of the exposure plate. Inserts were transferred to a separate (exposure) plate to avoid contamination of the adjacent inserts and 200 μl of the aerosol were applied per well (Fig B, a in S1 File). After the treatment the insert was replaced into the original plate for transport studies. The device was cleaned with 70% ethanol and aqua dest. at the end of the experiments and dried at 60°C overnight.
(§4) Damage of monolayer integrity was interpreted as difference between TEER values before and after the experiments > 100 Ω*cm^2.

Calu-3 cells [5] = conditions: cited from earlier work; for Papp values of rhodamine 123 reported: ref [68],[70]
Calu-3 cells [6] = test system: Calu-3 cells
Experimental: as §1, §2, §3, §4

Calu-3 cells [7] = conditions: human, pH 7.4
in vitro = conditions: human, pH 7.4, Papp
[8] = pH 7.4, Papp, SLE (submersed culture, compound in buffer), n = 4
[9] = pH 7.4, Papp, ALE (air-liquid interface culture, compound in buffer), n = 4

SMILES | Papp at 120 min ([1]; pH 7.4) [×10⁻⁶ cm/s] | Papp at 120 min [1, 8] [×10⁻⁶ cm/s] | Ratio Papp (ALE/ SLE) (Calu-3 cells [2]) | Amount of budesonide in the cells (Calu-3 cells [2]; cell lysis after the last sample, total recovered amount 19.3±0.7 μg) [µg] | Change of budesonide transport on co-incubation with formoterol (Calu-3 cells [2]; solution, SLE and ALE, mixture 50 μM budesonide and 0.5 mM formoterol fumarate) | Size of delivered single particles [3] [μm] | Transport in the fixed dose combination Symbicort versus applied alone (Calu-3 cells [4]; DP-4 Dry Powder Insufflator (AID_D), n = 3) | Papp values of fluorescein published by other groups (Calu-3 cells [5]; SLE, ref [8],[41],[49],[65]–[69]) [x 10–6 cm/s] | Papp at 120 min, 10 μg/ml ([1]; Air-liquid interface culture, 0.4 μm pores) [×10⁻⁶ cm/s] | Papp at 120 min, 10 μg/ml ([1]; Air-liquid interface culture, 3 μm pores) [×10⁻⁶ cm/s] | Papp at 120 min, 10 μg/ml ([1]; Submersed culture, 3 μm pores) [×10⁻⁶ cm/s] | Papp at 120 min [1, 9] [×10⁻⁶ cm/s] | Dye transport relative to SLE (Calu-3 cells [4]) [times] | Dye transport relative to SLE incubation (Calu-3 cells [4]) [times] | Transport in the fixed dose combination Symbicort versus applied alone (Calu-3 cells [6]) | Papp (Calu-3 cells [7]) | Ratio Papp (ALE/ SLE) (Calu-3 cells [7]) | Papp (in vitro) [×10⁻⁶ cm/s] | Papp values of rhodamine 123 reported (Calu-3 cells [5]; ALE) [×10⁻⁶ cm/s] | Papp values of rhodamine 123 reported (Calu-3 cells [5]; SLE) [×10⁻⁶ cm/s]
CCCC1O[C@@H]2C[C@H]3[C@@H]4CCC5=CC(=O)C=C[C@]5(C)[C@H]4[C@@H](O)C[C@]3(C)[C@]2(C(=O)CO)O1 (stereo partly shown) [Budesonide, budesonide] | 17.9 ± 1.36 | 13.18 ± 0.06 | 1.36 | 0.96 | did not show changes | 3.2± 1.3 | no differences | – | – | – | – | – | – | – | – | – | – | – | – | –
O=C1OC2(c3ccc(O)cc3Oc3cc(O)ccc32)c2ccccc21 [Fluorescein, Sodium fluorescein] | – | 0.09 ± 0.04 | 3.00 | – | – | 1.1±0.3 | – | 0.1 | 0.23 ± 0.04 | 0.27 ± 0.08 | 0.09 ± 0.04 | 0.27 ± 0.08 | 131.7 | 4.3 | – | – | – | – | – | –
COc1ccc(CC(C)NCC(O)c2ccc(O)c(NC=O)c2)cc1 (stereo not shown) [Formoterol, formoterol fumarate dihydrate] | – | – | – | – | – | – | – | – | – | – | – | – | – | – | significantly higher | 1.72±0.24 10^−6 cm/s | 1.73 | 2.98 ± 0.79 | – | –
COC(=O)c1ccccc1-c1c2ccc(=N)cc-2oc2cc(N)ccc12 [Rhodamine 123, rhodamine 123] | – | 0.07 ± 0.02 | 3.86 | – | – | – | – | – | – | – | – | 0.27 ± 0.09 | 48.2 | 3.2 | – | – | – | – | 2.27 | 0.49
